*1 amine or outer side, *2 acyl side, *3 side chain or, on linkers, in order; H or OH if unused. Where a SMILES comes first, the peptide text is derived from it. Bridges are numbered along the chain shown (N, C = ends). [ ]: non-standard residue; d: D form. The star is where a group is joined. hTyr(3S-OH,4S-OH,3'-OSO3H) = N[C@H](C(=O)O)[C@H](O)[C@@H](O)c1ccc(O)c(OS(=O)(=O)O)c1; Orn(4R-OH,5R-OH) = O=C([C@H](C[C@@H](O)[C@@H](O)N[*:3])N[*:1])[*:2]; Pro(3S-OH,4S-Me) = C[C@H]1CN[C@H](C(=O)O)[C@H]1O; X1 = CCCCCOc1ccc(-c2cc(-c3ccc(C(=O)*)cc3)no2)cc1; Gln(3R-OH) = NC(=O)C[C@@H](O)[C@H](N)C(=O)O; Hyp = O=C(O)[C@@H]1C[C@@H](O)CN1
Test: Purity and stability test (HPLC purity after sealed storage at 25° C. for 30 days)
Assay type: physicochemical
Details: for Purity of initial sample: HPLC purity before storage (baseline of stability test); for Purity of sample after stored ar 25° C. for 30 days: sealed, HPLC purity
Excerpt: High performance liquid chromatography (HPLC) is a common method for detecting the purity of a compound, wherein a liquid is used as the mobile phase and a high-pressure transfusion system is used for pumping the mobile phase, such as single solvents with different polarities or a mixture of solvents at different proportions, buffers, into a column packed with a stationary phase. Each component is separated in the column, and then enters into a detector for detection, thereby analyzing a sample. In the present invention, HPLC is used for determining the purity of the compound of formula I and studying the stability of a sample.
HPLC detection method is listed as follows:
Analysis Column: YMC-ODS 250×4.6 mm, 5 μm;
Mobile phase: acetonitrile:phosphate buffer (pH 3.0)=45:70;
Column temperature: 35° C.;
Diluent: aqueous phosphate buffer;
Detection wavelength: 210 nm;
In this Example, the purity and stability of samples obtained in Comparative Examples and Examples were compared. The used method is described as follows:
The solvate of the compound of formula I prepared in Examples 2, the crystal of B82 type obtained in Comparative Example 1 and amorphous solids obtained in Example 1 were taken and sealed at 25° C. for 30 days respectively. And then the content of impurities in the sample was analyzed. Results for comparing the stability of the solvate of the compound of formula I according to the present invention, the crystal of B82 type and the amorphous solid are shown in the following table: […]

| Compound | Purity of initial sample [%] | Purity of sample after stored ar 25° C. for 30 days [%] | stability compared with crystal of B82 type (solid-state stability, in words) |
| --- | --- | --- | --- |
| CCCCCOc1ccc(-c2cc(-c3ccc(C(=O)N[C@H]4C[C@@H](O)[C@@H](O)NC(=O)[C@@H]5[C@@H](O)[C@@H](C)CN5C(=O)[C@H]([C@H](O)CC(N)=O)NC(=O)[C@H]([C@H](O)[C@@H](O)c5ccc(O)c(OS(=O)(=O)[O-])c5)NC(=O)[C@@H]5C[C@@H](O)CN5C(=O)[C@H]([C@@H](C)O)NC4=O)cc3)no2)cc1.[Na+] [Crystal of B82 type, Micafungin Sodium] (X1-[Orn(4R-OH,5R-OH)]T[Hyp][hTyr(3S-OH,4S-OH,3'-OSO3H)][Gln(3R-OH)][Pro(3S-OH,4S-Me)]; lactam 1-C) | 99.50 | 96.98 |  |
| CCCCCOc1ccc(-c2cc(-c3ccc(C(=O)N[C@H]4C[C@@H](O)[C@@H](O)NC(=O)[C@@H]5[C@@H](O)[C@@H](C)CN5C(=O)[C@H]([C@H](O)CC(N)=O)NC(=O)[C@H]([C@H](O)[C@@H](O)c5ccc(O)c(OS(=O)(=O)[O-])c5)NC(=O)[C@@H]5C[C@@H](O)CN5C(=O)[C@H]([C@@H](C)O)NC4=O)cc3)no2)cc1.[Na+] [Amorphous solids, Micafungin Sodium] (X1-[Orn(4R-OH,5R-OH)]T[Hyp][hTyr(3S-OH,4S-OH,3'-OSO3H)][Gln(3R-OH)][Pro(3S-OH,4S-Me)]; lactam 1-C) | 99.38 | 89.27 |  |
| CCCCCOc1ccc(-c2cc(-c3ccc(C(=O)N[C@H]4C[C@@H](O)[C@@H](O)NC(=O)[C@@H]5[C@@H](O)[C@@H](C)CN5C(=O)[C@H]([C@H](O)CC(N)=O)NC(=O)[C@H]([C@H](O)[C@@H](O)c5ccc(O)c(OS(=O)(=O)[O-])c5)NC(=O)[C@@H]5C[C@@H](O)CN5C(=O)[C@H]([C@@H](C)O)NC4=O)cc3)no2)cc1.[Na+] [Solvate of the compound of formula I, Sodium 5-[(1S,2S)-2-[(3S,6S,9S,11R,15S,18S,20R,21R,24S,25S,26S)-3-[(R)-2-carbamoyl-1-hydroxyethyl]-11,20,21,25-tetrahydroxy-15-[(R)-1-hydroxyethyl]-26-methyl-2,5,8,14,17,23-hexaoxo-18-[4-[5-(4-pentoxyphenyl)isoxazol-3-yl]benzoylamino]-1,4,7,13,16,22-hexaazatricyclo[22.3.0.0^9,13]heptacosan-6-yl]-1,2-dihydroxyethyl]-2-hydroxy phenyl sulfate] (X1-[Orn(4R-OH,5R-OH)]T[Hyp][hTyr(3S-OH,4S-OH,3'-OSO3H)][Gln(3R-OH)][Pro(3S-OH,4S-Me)]; lactam 1-C) | 99.55 | 99.50 | better than that of the crystal of B82 type |

Reference: US10183973B2, “Solvate of cyclic peptide compound, preparation method for same, and uses thereof” (SHANGHAI TECHWELL BIOPHARMACEUTICAL CO., LTD, priority 2014, dated 2019)
